Reference: patent US20100063074A1, “Cancer Treatment Method” (priority 2004, published 2010)
Like-named read-outs stand apart in the source and are kept apart here.

What was measured:
[1] = tested on: pancreatic cancer with distant metastases; details: pancreatic tumors with distant metastases; cited from earlier work
solid tumors = details: for time remained on lapatinib, SD patient: progressing on previous therapy
T24 = experiment: Cell growth inhibition IC50 (methylene blue), T24; details: Homo sapiens, T-24, 72 h, read-out: Growth Inhibition (IC50 μM)
Protocol: (§1) The human bladder cell lines, HT-1197, HT-1376 and T24, and the ovarian cell line, SKOV3, were obtained from the American Type Culture Collection. The cells were maintained in tissue culture flasks in RPMI 1640 (Invitrogen # 22400-089) with 10% fetal bovine serum (FBS, HyClone # SH30071.03) and were incubated at 37° Celsius in an atmosphere of 5% CO2, until plating for IC50 determination. For IC50 determination, cells were plated in the appropriate medium at 5,000 cells per well in a 96-well tissue culture dish and returned to the incubator overnight. […] Final concentrations ranged from 30 micromolar to 0.00152 micromolar. After three days of compound exposure, the growth medium was removed by aspiration. Cell biomass was estimated by staining cells in 0.1 ml per well of methylene blue (Sigma #M9140, 0.5% in 50:50, ethanol:water), followed by incubation at room temperature for at least 30 minutes. Stain was aspirated and the plates rinsed by immersion in deionized water, followed by air drying. Stain was released from cells by the addition of 0.1 ml of solubilization solution (1.0% N-lauryl sarcosine, Sodium salt, Sigma #L5121 in PBS). Plates were incubated at room temperature for 40 minutes. Absorbance was read at 620 nm in a Tecan Spectra micro-plate reader. Percent inhibition of cell growth was calculated relative to untreated control wells. […]

SW837 = experiment: Cell growth inhibition IC50, SW837; details: Homo sapiens, SW837, read-out: Growth Inhibition (IC50 μM)
[2] = tested on: locally advanced or metastatic TCC of the bladder
Colo 205 = experiment: Cell growth inhibition IC50, Colo 205; details: Homo sapiens, COLO 205, read-out: Growth Inhibition (IC50 μM)
HMEC = experiment: Cell growth inhibition IC50, HMEC; details: Homo sapiens, read-out: Growth Inhibition (IC50 μM)
Protocol: (§2) The cells were maintained in tissue culture flasks in RPMI 1640 (Invitrogen # 22400-089) with 10% fetal bovine serum (FBS, HyClone # SH30071.03) and were incubated at 37° Celsius in an atmosphere of 5% CO2, until plating for IC50 determination. For IC50 determination, cells were plated in the appropriate medium at 5,000 cells per well in a 96-well tissue culture dish and returned to the incubator overnight. […] Final concentrations ranged from 30 micromolar to 0.00152 micromolar. After three days of compound exposure, the growth medium was removed by aspiration. Cell biomass was estimated by staining cells in 0.1 ml per well of methylene blue (Sigma #M9140, 0.5% in 50:50, ethanol:water), followed by incubation at room temperature for at least 30 minutes. Stain was aspirated and the plates rinsed by immersion in deionized water, followed by air drying. Stain was released from cells by the addition of 0.1 ml of solubilization solution (1.0% N-lauryl sarcosine, Sodium salt, Sigma #L5121 in PBS). Plates were incubated at room temperature for 40 minutes. Absorbance was read at 620 nm in a Tecan Spectra micro-plate reader. Percent inhibition of cell growth was calculated relative to untreated control wells. IC50 values were interpolated using the method of Levenberg and Marquardt (Mager, 1972) and the equation: y=Vmax*[1−(x^n/(K^n+x^n))], where “K” is equal to IC50. […]

DLD-1 = experiment: Cell growth inhibition IC50, DLD-1; details: Homo sapiens, DLD-1, read-out: Growth Inhibition (IC50 μM)
Protocol: as §2

SKOV3 = experiment: Cell growth inhibition IC50 (methylene blue), SKOV3; details: Homo sapiens, SK-OV-3, 72 h, read-out: Growth Inhibition (IC50 μM)
Protocol: as §1

786O = experiment: Cell growth inhibition IC50, 786O; details: Homo sapiens, 786-0, read-out: Growth Inhibition (IC50 μM)
Protocol: as §1

SKMEL28 = experiment: Cell growth inhibition IC50, SKMEL28; type: cell-based; details: Homo sapiens, SK-MEL-28, Melanoma
Protocol: as §2

CaLu3 = experiment: Cell growth inhibition IC50, CaLu3; details: Homo sapiens, Calu-3, read-out: Growth Inhibition (IC50 μM)
Protocol: as §1

NCI-H747 = experiment: Cell growth inhibition IC50, NCI-H747; details: Homo sapiens, NCI-H747, read-out: Growth Inhibition (IC50 μM)
Protocol: as §2

[3] = tested on: H16 N2 (Transfected erbB2); experiment: Cell growth inhibition IC50, H16 N2; details: read-out: Growth Inhibition (IC50 μM)
Protocol: as §1

NCI-H460 = experiment: Cell growth inhibition IC50, NCI-H460; type: cell-based; details: Homo sapiens, Lung Carcinoma
Protocol: as §1

RKO = experiment: Cell growth inhibition IC50, RKO; type: cell-based; details: Homo sapiens, Colorectal carcinoma
Protocol: as §2

A427 = experiment: Cell growth inhibition IC50, A427; type: cell-based; details: Homo sapiens, A-427, Lung Carcinoma
Protocol: as §1

BxPC3 = experiment: Cell growth inhibition IC50, BxPC3; details: Homo sapiens, BXPC-3, read-out: Growth Inhibition (IC50 μM)
Protocol: as §2

HT29 = experiment: Cell growth inhibition IC50, HT29; details: Homo sapiens, HT-29, read-out: Growth Inhibition (IC50 μM)
NCI-H727 = experiment: Cell growth inhibition IC50, NCI-H727; type: cell-based; details: Homo sapiens, Lung carcinoid bronchus
Protocol: as §2

NCI-H358 = experiment: Cell growth inhibition IC50, NCI-H358; details: Homo sapiens, NCI-H358, read-out: Growth Inhibition (IC50 μM)
Protocol: as §2

Lovo = experiment: Cell growth inhibition IC50, Lovo; type: cell-based; details: Homo sapiens, Colorectal carcinoma
Protocol: as §1

HFF = experiment: Cell growth inhibition IC50, HFF; details: Homo sapiens, read-out: Growth Inhibition (IC50 μM)
Protocol: as §1

A431 = experiment: Cell growth inhibition IC50, A431; details: Homo sapiens, A-431, read-out: Growth Inhibition (IC50 μM)
Protocol: as §1

NCI-H2009 = experiment: Cell growth inhibition IC50, NCI-H2009; details: Homo sapiens, NCI-H2009, read-out: Growth Inhibition (IC50 μM)
Protocol: as §2

HCT 116 = experiment: Cell growth inhibition IC50, HCT 116; details: Homo sapiens, HCT-116, read-out: Growth Inhibition (IC50 μM)
Protocol: as §2

A549 = experiment: Cell growth inhibition IC50, A549; details: Homo sapiens, A549, read-out: Growth Inhibition (IC50 μM)
Protocol: as §1

H1197 = experiment: Cell growth inhibition IC50 (methylene blue), H1197; details: Homo sapiens, 72 h, read-out: Growth Inhibition (IC50 μM)
Protocol: The cells were maintained in tissue culture flasks in RPMI 1640 (Invitrogen # 22400-089) with 10% fetal bovine serum (FBS, HyClone # SH30071.03) and were incubated at 37° Celsius in an atmosphere of 5% CO2, until plating for IC50 determination. For IC50 determination, cells were plated in the appropriate medium at 5,000 cells per well in a 96-well tissue culture dish and returned to the incubator overnight. […] Final concentrations ranged from 30 micromolar to 0.00152 micromolar. After three days of compound exposure, the growth medium was removed by aspiration. Cell biomass was estimated by staining cells in 0.1 ml per well of methylene blue (Sigma #M9140, 0.5% in 50:50, ethanol:water), followed by incubation at room temperature for at least 30 minutes. Stain was aspirated and the plates rinsed by immersion in deionized water, followed by air drying. Stain was released from cells by the addition of 0.1 ml of solubilization solution (1.0% N-lauryl sarcosine, Sodium salt, Sigma #L5121 in PBS). Plates were incubated at room temperature for 40 minutes. Absorbance was read at 620 nm in a Tecan Spectra micro-plate reader. Percent inhibition of cell growth was calculated relative to untreated control wells. IC50 values were interpolated using the method of Levenberg and Marquardt (Mager, 1972) and the equation: y=Vmax*[1−(x^n/(K^n+x^n))], where “K” is equal to IC50.

LS174T = experiment: Cell growth inhibition IC50, LS174T; type: cell-based; details: Homo sapiens, Colon adenocarcinoma
Protocol: as §2

PC3 = experiment: Cell growth inhibition IC50, PC3; details: Homo sapiens, PC-3, read-out: Growth Inhibition (IC50 μM)
Protocol: as §1

[4] = tested on: locally advanced or metastatic transitional cell carcinoma of the urothelial tract
Protocol: Safety and efficacy assessments (independent review) were carried out at 4 and 8-week intervals respectively. Patients were also assessed at withdrawal, and followed every 2 months until death.

H1376 = experiment: Cell growth inhibition IC50 (methylene blue), H1376; details: Homo sapiens, 72 h, read-out: Growth Inhibition (IC50 μM)
Protocol: as §1

LNCaP = experiment: Cell growth inhibition IC50, LNCaP; details: Homo sapiens, read-out: Growth Inhibition (IC50 μM)
Protocol: as §1

Calu1 = experiment: Cell growth inhibition IC50, Calu1; details: Homo sapiens, Calu-1, read-out: Growth Inhibition (IC50 μM)
Protocol: as §2

H157 = experiment: Cell growth inhibition IC50, H157; type: cell-based; details: Homo sapiens, NCI-H157, Lung carcinoma
Protocol: as §2

SW620 = experiment: Cell growth inhibition IC50, SW620; details: Homo sapiens, SW-620, read-out: Growth Inhibition (IC50 μM)
SW480 = experiment: Cell growth inhibition IC50, SW480; details: Homo sapiens, SW480, read-out: Growth Inhibition (IC50 μM)
Protocol: as §1

NCI-H322 = experiment: Cell growth inhibition IC50, NCI-H322; type: cell-based; details: NSCLC
Protocol: as §2

EGFR and erbB2 kinases = details: Rusnak et al., 2001b; Xia et al., 2002; cited from earlier work
[5] = Head and Neck, 9 patients, only patients receiving lapatinib more than 4 months
[6] = QD administration, heavily pre-treated population
[7] = 1250 mg daily oral, 59 patients, investigator reported
[8] = 1250 mg once daily, interim analysis of 30 patients

For `O=c1[nH]cc(F)c(=O)[nH]1` [FU, fluorouracil], the “clinical benefit response (cancer-related symptoms)” value [1] is listed as 4.8% and the overall survival [1] is listed as 4.4 months.

In the case of `CS(=O)(=O)CCNCc1ccc(-c2ccc3ncnc(Nc4ccc(OCc5cccc(F)c5)c(Cl)c4)c3c2)o1.Cc1ccc(S(=O)(=O)O)cc1` [GW572016F, N-{3-Chloro-4-[(3-fluorobenzyl)oxy]phenyl}-6-[5-({[2-(methanesulphonyl)ethyl]amino}methyl)-2-furyl]-4-quinazolinamine ditosylate monohydrate], the “median duration of SD” value (solid tumors; 22 SD pts) is reported as 4 mos, the interstitial pneumonitis (solid tumors; 81 patients treated) is reported as “no cases” and the “time remained on lapatinib, SD patient” value (solid tumors; AUP metastatic to lung) is reported as ≥ 8 mos. For the same compound, the “Clinical Response, SD (patients)” value (solid tumors; AUP, 6 patients, only patients receiving lapatinib more than 4 months) was “SD = 1”, the “Clinical Response, SD (patients)” value (solid tumors; Breast, 6 patients, only patients receiving lapatinib more than 4 months) was “SD = 2” and the “Clinical Response, SD (patients)” value (solid tumors; Cervical, 2 patients, only patients receiving lapatinib more than 4 months) was “SD = 1”. The “Clinical Response, SD (patients)” value (solid tumors; Colorectal, 27 patients, only patients receiving lapatinib more than 4 months) was “SD = 3”, the “Clinical Response, CR (patients)” value (solid tumors; [5]) was 1 and the “Clinical Response, SD (patients)” value (solid tumors; [5]) was 3. For the same compound, the “Clinical Response, SD (patients)” value (solid tumors; Mesothelioma, 3 patients, only patients receiving lapatinib more than 4 months) was “SD = 1”, the “Clinical Response, SD (patients)” value (solid tumors; NSCLC, 7 patients, only patients receiving lapatinib more than 4 months) was “SD = 3” and the “clinical activity (in words)” value (solid tumors; [6]) was “evidence of clinical activity”. For the same compound, the “tolerability (in words)” value (solid tumors; [6]) was “well tolerated”, the “Clinical Response, SD (patients)” value (solid tumors; Renal, 6 patients, only patients receiving lapatinib more than 4 months) was “SD = 2” and the “duration of CR” value (solid tumors; erbB1 overexpressing head and neck squamous cell carcinoma) was ≥ 16 mos. For the same compound, the “CR (number of patients)” value (solid tumors; erbB1 overexpressing head and neck squamous cell carcinoma, 81 patients treated) was “One”, the “time remained on lapatinib, SD patient” value (solid tumors; non-small cell lung cancer) was ≥ 12 mos and the “patients who experienced SD” value (solid tumors; various tumors most overexpressing either erbB1 or erbB2, 81 patients treated) was “Twenty-two”. For the same compound, the IC50 (T24) was 8.22 µM, the IC50 (SW837) was 4.7 µM and the “patients with asymptomatic, Grade 2 decrease in cardiac ejection fraction” value ([2]; 1250 mg daily) was “One”. For the same compound, the “tolerability (in words)” value ([2]; 1250 mg daily) was “well-tolerated”, the “PR, independent radiologic review” value ([2]; 1250 mg daily oral, 59 patients, RECIST) was 2% and the “partial responses (PR), investigators” value [2, 7] was 3%. For the same compound, the “stable disease (SD), investigators” value [2, 7] was 20%, the “Grade 3/4 AEs: diarrhea” value ([2]; 1250 mg daily, Grade 3/4) was 3% and the “Grade 3/4 AEs: vomiting” value ([2]; 1250 mg daily, Grade 3/4) was 7%. For the same compound, the “Adverse events: asthenia” value ([2]; 1250 mg daily, all grades) was 12%, the “Adverse events: diarrhea” value ([2]; 1250 mg daily, all grades) was 39% and the “Adverse events: fatigue” value ([2]; 1250 mg daily, all grades) was 10%. The “Adverse events: nausea” value ([2]; 1250 mg daily, all grades) was 27%, the “Adverse events: rash” value ([2]; 1250 mg daily, all grades) was 32% and the “Adverse events: vomiting” value ([2]; 1250 mg daily, all grades) was 22%. For the same compound, the “median TTP” value ([2]; 95% CI 8.00, 11.29) was 8.6 weeks, the median overall survival ([2]; 95% CI 13.14, 30.29) was 17.9 weeks and the “clinical benefit (CR+PR+SD≧16 weeks), independent review” value ([2]; assessed by independent review) was 12%. The “clinical benefit (CR+PR+SD≧16 weeks), investigator” value ([2]; assessed by investigator) was 14%, the patients with cytoreduction ([2]; at week 8) was 10 patients and the patients with cytostasis ([2]; at week 8) was 4 patients. For the same compound, the “patients with tumor growth up to 20%” value ([2]; at week 8) was 10 patients, the “patients with durable SD lasting 6 months” value ([2]; independent review) was “three” and the “patients with durable SD lasting 4 months” value ([2]; investigator review) was “six”. The “time on study of one patient who remains on study” value ([2]; one patient) was > 56 weeks, the “activity (in words)” value ([2]; relapsed, advanced or metastatic TCC of the bladder) was “exhibits monotherapy activity” and the IC50 (Colo 205) was 7.7 µM. For the same compound, the IC50 (HMEC) was 1.34 µM, the IC50 (DLD-1) was 3.63 µM and the IC50 (SKOV3) was 1.25 µM. For the same compound, the IC50 (786O) was 1.82 µM, the IC50 (SKMEL28) was 5.9 µM and the IC50 (CaLu3) was 0.057 µM. For the same compound, the IC50 (NCI-H747) was 1.49 µM, the IC50 [3] was 0.03 µM and the IC50 (NCI-H460) was 9 µM. It also gave an IC50 (RKO) of 5.48 µM, an IC50 (A427) of 5.95 µM and an IC50 (BxPC3) of 1.41 µM. For the same compound, the IC50 (HT29) was 5.24 µM, the IC50 (NCI-H727) was 7.59 µM and the IC50 (NCI-H358) was 0.27 µM. For the same compound, the IC50 (Lovo) was 3.39 µM, the IC50 (HFF) was 6.45 µM and the IC50 (A431) was 0.23 µM. For the same compound, the IC50 (NCI-H2009) was 11.5 µM, the IC50 (HCT 116) was 5.87 µM and the IC50 (A549) was 4.98 µM. For the same compound, the IC50 (H1197) was 7.78 µM, the IC50 (LS174T) was 1.51 µM and the IC50 (PC3) was 7.15 µM. For the same compound, the “Clinical benefit (≧6 months SD)” value [4, 8] was 10%, the “PR confirmed at 8 weeks (number)” value [4, 8] was “one” and the “patients with progressive disease” value [4, 8] was 17%. The “patients with tumour reduction qualified as partial responses (PR) at the initial assessment” value [4, 8] was 10%, the “activity (in words)” value ([4]; second-line oral treatment) was “promising activity” and the IC50 (H1376) was 3.34 µM. For the same compound, the IC50 (LNCaP) was 4.69 µM, the IC50 (Calu1) was 5.51 µM and the IC50 (H157) was 5.98 µM. For the same compound, the IC50 (SW620) was 6.75 µM, the IC50 (SW480) was 6.86 µM and the IC50 (NCI-H322) was 0.92 µM.

For `CS(=O)(=O)CCNCc1ccc(-c2ccc3ncnc(Nc4ccc(OCc5cccc(F)c5)c(Cl)c4)c3c2)o1` [GW572016, N-{3-chloro-4-[(3-fluorobenzyl)oxy]phenyl}-6-[5-({[2-(methanesulphonyl)ethyl]amino}methyl)-2-furyl]-4-quinazolinamine], the “kinase inhibition in human xenograft studies” value (EGFR and erbB2 kinases) is given as “dose-dependent kinase inhibition”.

In the case of `Nc1ccn([C@@H]2O[C@H](CO)[C@@H](O)C2(F)F)c(=O)n1` [gemcitabine], the “clinical benefit response (cancer-related symptoms)” value [1] is listed as 23.8% and the overall survival [1] is listed as 5.6 months.
